Laboratory results reported in PubChem BioAssay (NCI).
Values joined by “and” are separate entries in the source; they are usually repeats but may differ in a detail not shown here. Equal values may be shown once.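 48-hour exposure; five concentrations; linearly interpolated endpoints. At the GI50, growth is halved. TGI: concentration producing complete growth inhibition.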

Tests used:
Test in all cases: DTP human tumour cell line panel, 48 h
A549 NSCLC = system: A549 NSCLC
COLO 205 colon = system: COLO 205 colon
DU-145 prostate = system: DU-145 prostate
HOP-62 NSCLC = system: HOP-62 NSCLC
HOP-92 NSCLC = system: HOP-92 NSCLC
M14 melanoma = system: M14 melanoma
NCI/ADR-RES ovarian = system: NCI/ADR-RES ovarian
OVCAR-8 ovarian = system: OVCAR-8 ovarian
SK-MEL-2 melanoma = system: SK-MEL-2 melanoma
T-47D breast = system: T-47D breast

Row | SMILES | GI50 (A549 NSCLC) [µM] | TGI (A549 NSCLC) [µM] | GI50 (COLO 205 colon) | TGI (COLO 205 colon) | GI50 (DU-145 prostate) [µM] | TGI (DU-145 prostate) | GI50 (HOP-62 NSCLC) | TGI (HOP-62 NSCLC) [µM] | GI50 (HOP-92 NSCLC) [µM] | GI50 (M14 melanoma) | TGI (M14 melanoma) | GI50 (NCI/ADR-RES ovarian) [µM] | TGI (NCI/ADR-RES ovarian) | GI50 (OVCAR-8 ovarian) | TGI (OVCAR-8 ovarian) | GI50 (SK-MEL-2 melanoma) | TGI (SK-MEL-2 melanoma) | GI50 (T-47D breast) [µM] | TGI (T-47D breast) | TGI (HOP-92 NSCLC)
1 | N#Cc1ccc(NC(=O)Nc2nc3ccc(OC(F)(F)F)cc3s2)cc1 | 1.21 | 11.1 | 1.68 µM | 3.9 µM | 2.7 | 13.6 µM | 2.52 µM | 8.12 | 0.324 | 2.37 µM | 6.53 µM | 1.55 | 8.39 µM | 2 µM | 9.91 µM | 1.78 µM | 4.25 µM | 0.428 | 5.8 µM | 
2 | S=C1SCN(C2CCCCCCCCCCC2)CN1C1CCCCCCCCCCC1 |  | > 100 |  | > 100 µM |  | > 100 µM |  | > 100 |  |  | > 100 µM |  | > 100 µM |  | > 100 µM |  | > 100 µM |  | > 100 µM | > 100 µM
3 | Cc1ccccc1C[P+](c1ccccc1)(c1ccccc1)c1ccccc1 | 3.72 | > 100 | 1.16 µM | 3.28 µM | 2.18 | > 100 µM | 1.79 µM | 58.9 | 0.433 |  |  | > 100 | > 100 µM | 1.48 µM | > 100 µM | 1.29 µM | 68.4 µM | 0.294 | 14.9 µM | 3.77 µM
4 | C=C1C(=O)O[C@H]2[C@H]1CC/C(Cn1cc(-c3ccsc3)nn1)=C\CC[C@@]1(C)O[C@@H]21 | 8.61 | 23.1 | 1.45 µM | 3.24 µM | 1.43 | 2.88 µM | 4.9 µM | 18.9 | 1.66 | 1.93 µM | 5.02 µM | 3.79 | 16.9 µM | 2.96 µM | 11 µM | 2.27 µM | 5.34 µM | 2.03 | 5.52 µM | 3.62 µM
5 | COc1ccc2c(c1)c(-c1ccc(-c3cn(C)c4ccc(OC)cc34)o1)cn2C | 18.4 | > 100 | 5.13 µM | 31.1 µM | > 100 | > 100 µM | > 100 µM | > 100 | 1.03 | 16.7 µM | > 100 µM | 3.86 | 16.6 µM | 8.02 µM | > 100 µM | 2.13 µM | 5.28 µM | 2.72 | 11.4 µM | 10.3 µM
6 | O=C1CCC(N2C(=O)c3cccc(NCCOCCOCCNC(=O)c4cc5c(o4)C(=O)c4ccccc4C5=O)c3C2=O)C(=O)N1 (centres undefined) | 2.18 | 4.91 | 1.98 µM | 3.94 µM | 1.82 | 3.25 µM | 1.84 µM | 3.3 | 3.27 | 1.2 µM | 2.6 µM | 17.1 | 62.1 µM | 2.04 µM | 10.5 µM | 2.36 µM | 6.46 µM | 2.46 | 8.05 µM | 12.5 µM
7 | CCC1(N)C(=O)OCc2c1cc1n(c2=O)Cc2cc3ccccc3nc2-1 (centres undefined) | 5.05 | > 100 | 16.7 µM | > 100 µM | 5.79 | > 68.7 µM and 21.2 µM | 4.77 µM | > 100 | 28.4 |  | 54 µM and > 100 µM | 7.18 | > 54.1 µM and 61.3 µM | 12 µM | > 72.4 µM | 48.8 µM | > 100 µM | 5.78 | > 100 µM and 18.4 µM | > 100 µM and 99 µM
8 | CN(C)C1C(=O)C(C(N)=O)=C(O)C2(O)C(=O)C3=C(O)c4c(O)cccc4C(C)(O)C3CC12 (centres undefined) |  | > 100 | 25.7 µM and > 100 µM | 72.2 µM and > 100 µM |  | > 100 µM | 37.5 µM and > 100 µM | > 100 |  | 46.1 µM and > 100 µM | > 100 µM |  | > 100 µM | 15.4 µM and > 100 µM | 34.9 µM and > 100 µM | 73 µM and 28 µM | > 100 µM and 91.8 µM |  | > 100 µM | > 100 µM
9 | C[C@@]1(O)CCC[C@H]1n1c(=O)c(C(F)F)cc2cnc(NC3CCN(S(C)(=O)=O)CC3)nc21 | 1.66 | > 100 |  |  | 2.18 | 54.7 µM | 2.03 µM | > 100 | 2.04 | 1.75 µM | 7.62 µM | 12.7 | > 100 µM | 2.11 µM | > 100 µM | 2.28 µM | 6.34 µM | 1.29 | > 100 µM | 6.8 µM
10 | O=c1c(-c2nc3ccccc3[nH]2)cc2ccccc2n1Cc1cn(Cc2ccccc2Cl)nn1 | 2.05 | 4.38 |  |  | 1.72 | 3.21 µM |  |  | 1.85 | 2.65 µM | 9.33 µM | 1.94 | 4.22 µM | 2.56 µM | 9.27 µM | 3.07 µM | 10.8 µM | 2.85 | 9.88 µM | 4.93 µM
11 | CN[C@H]1CC[C@]23C[C@]24CC[C@]2(C)[C@@H]([C@H](C)N(C)C)CC[C@@]2(C)[C@@H]4CC[C@H]3C1(C)C |  | 39.2 |  | 25.2 µM |  | 28.4 µM |  |  |  |  | 37.2 µM |  | 36.6 µM |  | 32.9 µM |  | 40 µM |  | 35.2 µM | 26 µM
